# Measured values: patent publication US7893081B2, “Tyrosine kinase inhibitors” (Merck & Co., Inc., priority 2007, dated 2011)
# Structures can show the parent of a compound that is named as a salt.
# Tests used:
# [1] = Solubility in water of the salt forms of Compound 1; type: physicochemical; conditions: for Native pH: pH of the aqueous solubility sample
# Hygroscopicity (25° C.) = type: physicochemical; conditions: up to 80% RH
# human c-Met = human c-Met (Homo sapiens, UniProt P08581); assay: biochemical
# Method: The procedure for determining the potency of a compound to inhibit c-Met kinase comprises the following steps: • 1. Prepare 3-fold serial diluted compound solutions in 100% dimethyl sulfoxide (DMSO) at 20× of the desired final concentrations in a 96 well plate. • 2. […] In a black assay plate, add 2.5 μl of compound solution (or DMSO) and 37.5 μl of master reaction mix per well. Initiate the kinase reaction by adding 10 μl of 0.25 mM MgATP per well. Allow the reactions to proceed for 80 min at room temperature. The final conditions for the reaction are 0.2 nM c-Met, 0.5 μM substrate, 50 μM MgATP, 5 mM MgCl2, 100 mM NaCl, 2 mM DTT, 0.1 mg/ml BSA, 50 mM Tris (pH 7.4) and 5% DMSO. • 4. […] Read HTRF signals on a Victor reader (PerkinElmer) in HTRF mode after 60 min. • 6.
# [2] = Chemical and physical stability at 40° C./75% relative humidity; type: physicochemical; conditions: 6 Months at 40° C./75% relative humidity (RH)
# [3] = listed as Crystalline potassium salt, potassium salt monohydrate
# [4] = listed as Crystalline Sodium salt, sodium salt dihydrate
# human c-Met, sequence (P08581 956-1390 limits assumed): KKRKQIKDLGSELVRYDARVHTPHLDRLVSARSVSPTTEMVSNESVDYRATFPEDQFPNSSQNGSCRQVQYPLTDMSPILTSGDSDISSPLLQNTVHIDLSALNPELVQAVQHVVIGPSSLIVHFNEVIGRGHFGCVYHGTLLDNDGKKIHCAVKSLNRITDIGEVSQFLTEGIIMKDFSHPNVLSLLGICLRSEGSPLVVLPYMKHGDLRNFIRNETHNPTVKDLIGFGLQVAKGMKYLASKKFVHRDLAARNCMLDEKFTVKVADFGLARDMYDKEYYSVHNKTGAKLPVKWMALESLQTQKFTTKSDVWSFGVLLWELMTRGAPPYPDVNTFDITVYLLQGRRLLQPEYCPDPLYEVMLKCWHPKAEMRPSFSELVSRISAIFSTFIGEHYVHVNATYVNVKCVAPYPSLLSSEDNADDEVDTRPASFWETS
structure (smiles),measurement,setting,value
"CN(C[C@@H]1COCCO1)S(=O)(=O)Nc1ccc2ccc3ncc(-c4cnn(C)c4)cc3c(=O)c2c1 [Compound 1, N-[(2R)-1,4-dioxan-2-ylmethyl]-N-methyl-N′-[3-(1-methyl-1H-pyrazol-4-yl)-5-oxo-5H-benzo[4,5]cyclohepta[1,2-b]pyridin-7-yl]sulfamide]",Solubility in water,[1]; listed as Free Acid,0.003 mg/mL
same,Hygroscopicity (25° C.),Hygroscopicity (25° C.); listed as Free Acid,0.4% up to
same,IC50,human c-Met,≥ 50 µM
"CN(C[C@@H]1COCCO1)S(=O)(=O)Nc1ccc2ccc3ncc(-c4cnn(C)c4)cc3c(=O)c2c1 [Compound 1 potassium salt monohydrate, N-[(2R)-1,4-dioxan-2-ylmethyl]-N-methyl-N′-[3-(1-methyl-1H-pyrazol-4-yl)-5-oxo-5H-benzo[4,5]cyclohepta[1,2-b]pyridin-7-yl]sulfamide potassium salt monohydrate]",Native pH,[1]; [3],pH = 10.7
same,Solubility in water,[1]; [3],>170 mg/mL
same,Hygroscopicity (25° C.),Hygroscopicity (25° C.); [3],0.81% up
"CN(C[C@@H]1COCCO1)S(=O)(=O)Nc1ccc2ccc3ncc(-c4cnn(C)c4)cc3c(=O)c2c1 [Compound 1 sodium salt dihydrate, N-[(2R)-1,4-dioxan-2-ylmethyl]-N-methyl-N′-[3-(1-methyl-1H-pyrazol-4-yl)-5-oxo-5H-benzo[4,5]cyclohepta[1,2-b]pyridin-7-yl]sulfamide sodium salt dihydrate]",Native pH,[1]; [4],pH = 10.5
same,Solubility in water,[1]; [4],>400 mg/mL
same,chemical and physical stability,[2],chemically and physically stable
same,Hygroscopicity (25° C.),Hygroscopicity (25° C.); [4],0.14% up
